{
  "source": "paper PMC6332446",
  "about": "“Acylphloroglucinol Derivatives from the South African Helichrysum niveum and Their Biological Activities” (Molecules, 2015)",
  "key": {"[1]": {"assay": "ORAC assay, peroxyl radical absorbance capacity (ORACROO)", "settings": "trolox equivalents; AAPH, 37 °C; ± % STDEV", "procedure": "(§1) Automated Oxygen Radicals Absorbance Capacity (ORAC) Assay: ORAC was measured according to the method previously described. The method measures the antioxidant scavenging capacity for (a) peroxyl radicals generated by thermal decomposition of 2,2ʹ-azobis ([…]) dihydrochloride (AAPH; ORACROO assay); (b) hydroxyl radical (ORACOH assay), generated by H2O2-Cu^2+ (H2O2, 0.3%; Cu^2+ [as CuSO4], 18 μM, or (c) Cu^2+ [as CuSO4], 18 μM as a transition metal oxidant at 37 °C. ORAC values were expressed as micromoles of trolox equivalents (TE) per milligram of test sample, except when Cu^2+ (without H2O2) was used as an oxidant in the assay. In the presence of Cu^2+ without H2O2, test samples acted as prooxidants rather than antioxidants in the ORAC assay. The copper-initiated prooxidant activity was calculated using [(AreaBlank − AreaSample)/AreaBlank] × 100 and expressed as prooxidant units; one unit equals the prooxidant activity that reduces the area under the fluorescein decay curve by 1% in the ORAC assay."}, "[2]": {"assay": "ORAC assay, hydroxyl radical absorbance capacity (ORACOH)", "settings": "trolox equivalents; H2O2 0.3%, Cu2+ 18 μM, 37 °C; ± % STDEV", "procedure": "as §1"}, "[3]": {"assay": "Copper-initiated prooxidant activity in the ORAC assay", "settings": "Cu2+ 18 μM without H2O2, 37 °C; one unit = 1% reduction of area under fluorescein decay curve", "procedure": "as §1"}, "[4]": {"assay": "Trolox equivalent absorbance capacity (TEAC) assay", "settings": "trolox equivalents; absorbance 734 nm, 25 °C", "procedure": "Trolox Equivalent Absorbance Capacity (TEAC) Assay: The total antioxidant capacity of the test samples in terms of TEAC were measured using a previously described method. Absorbance was read at 734 nm at 25 °C in a plate reader and the results were expressed as μM trolox equivalents per milligram dry weight (μM TE/g DW) of the test samples."}, "[5]": {"assay": "Ferric-ion reducing antioxidant power (FRAP) assay", "settings": "ascorbic acid equivalents; absorbance 593 nm; ± % STDEV", "procedure": "Ferric-Ion Reducing Antioxidant Power (FRAP) Assay: Working FRAP reagent was prepared in accordance to the method described previously. Absorbance was measured at 593 nm. L-ascorbic acid was used as a standard and the results were expressed as μM ascorbic acid equivalents per milligram dry weight (μM AAE/g DW) of the test samples."}, "mushroom tyrosinase": {"molecular_target": "mushroom tyrosinase", "assay": "Tyrosinase enzyme assay", "assay_type": "biochemical", "settings": "L-Tyrosine substrate; samples screened at 100.00 μg/mL upper limit", "procedure": "Tyrosinase Enzyme Assay: The tyrosinase inhibitory activity was measured using the spectrophotometric method previously described. Samples were dissolved in DMSO to a stock solution of 1 mg/mL, and further dilutions were then done with 50 mM sodium phosphate buffer (pH 6.5) for all working solutions. […] In the wells of a 96-well plate, 70 µL of each sample working solution was combined with 30 μL of tyrosinase (500 Units/mL in sodium phosphate buffer) in triplicate. After incubation at room temperature for 5 min, 110 μL of substrate (2 mM L-Tyrosine) was added to each well. Final concentrations of the crude extract, isolated compounds, and positive control ranged from 1.0–100 μg/mL. Incubation commenced for 30 min at room temperature and the enzyme activity was determined by measuring the absorbance at 490 nm. The percentage of tyrosinase inhibition was calculated as follows: Tyrosinase inhibition (%) = [(A − B) − (C − D)]/(A − B) × 100 (1) where A is the absorbance of the control with the enzyme, B is the absorbance of the control without the enzyme, C is the absorbance of the test sample with the enzyme and D is the absorbance of the test sample without the enzyme."}, "[6]": {"molecular_target": "T1, elastase from porcine pancrease (Sus scrofa, UniProt P00772)", "T1 construct": "from tissue; host or cells: porcine pancreas", "T1 sequence (P00772 27-266)": "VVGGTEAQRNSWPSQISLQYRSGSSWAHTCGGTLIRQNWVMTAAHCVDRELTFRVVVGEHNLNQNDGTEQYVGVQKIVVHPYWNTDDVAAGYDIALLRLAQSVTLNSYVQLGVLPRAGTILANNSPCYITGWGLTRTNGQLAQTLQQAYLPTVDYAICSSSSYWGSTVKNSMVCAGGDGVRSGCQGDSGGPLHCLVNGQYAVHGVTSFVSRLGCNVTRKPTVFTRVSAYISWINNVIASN", "assay": "biochemical", "settings": "SANA substrate; samples screened at 100.00 μg/mL upper limit; read-out: Inhibitory Activities IC50, Elastase (converted)", "procedure": "Elastase Inhibition Assay: Inhibition of elastase by the test samples was assayed using N-succyl-(Ala)-3-nitroanilide (SANA) as the substrate, monitoring the release of p-nitroanilide by the method described previously. The inhibitory activity determined the intensity of color released during cleavage of SANA by the action of elastase. Briefly, 1 mM SANA was prepared in 0.1 M Tris-HCl buffer pH 8.0 and 200 μL of this solution was added to the 20 μL of sample solution in a 96-Well plate. The mixtures were vortexed and preincubated for 10 min at 25 °C and then 20 μL of elastase from porcine pancrease (0.03 Units/mL) was added. The mixtures were further incubated for 10 min and the absorbance was measured at 410 nm. Methanol was used as control, while oleanolic acid used as a positive control."}, "[7]": {"molecular_target": "Acetylcholinesterase (AChE) (Homo sapiens, UniProt P22303)", "sequence (P22303 32-614, species assumed)": "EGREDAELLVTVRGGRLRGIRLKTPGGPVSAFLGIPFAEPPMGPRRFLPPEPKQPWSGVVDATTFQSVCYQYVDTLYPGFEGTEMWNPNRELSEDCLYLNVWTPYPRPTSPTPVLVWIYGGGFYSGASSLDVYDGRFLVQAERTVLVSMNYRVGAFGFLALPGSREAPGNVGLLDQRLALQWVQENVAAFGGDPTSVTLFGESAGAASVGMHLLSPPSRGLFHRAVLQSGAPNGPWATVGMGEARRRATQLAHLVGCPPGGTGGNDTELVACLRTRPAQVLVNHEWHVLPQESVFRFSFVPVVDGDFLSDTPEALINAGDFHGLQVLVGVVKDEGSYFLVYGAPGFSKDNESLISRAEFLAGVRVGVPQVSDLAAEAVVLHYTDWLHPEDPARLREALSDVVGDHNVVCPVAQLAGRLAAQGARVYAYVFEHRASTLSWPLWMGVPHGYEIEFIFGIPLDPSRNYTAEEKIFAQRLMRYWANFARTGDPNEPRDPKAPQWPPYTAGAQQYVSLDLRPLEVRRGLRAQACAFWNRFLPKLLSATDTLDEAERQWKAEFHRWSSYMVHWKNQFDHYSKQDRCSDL", "assay": "biochemical", "settings": "500.00 μg/mL upper concentration limit; read-out: Inhibitory Activities IC50, Acetylcholinesterase (converted)", "procedure": "Acetylcholinesterase Inhibition Assay: Acetylcholinesterase (AChE) inhibitory activity was measured using Ellman’s method as previously described with minor modifications. AChE catalysis the hydrolysis of acetythiocholine iodide (ACTI as substrate) to thiocholine, which can then react with Ellman’s reagent (DTNB) to produce 5-thio-2-nitrobenzoate (yellow color). In the presence of samples (inhibitors), the release of 5-thio-2-nitrobenzoate (yellow color) is reduced and it is monitored by measuring the absorbance at 450 nm.\nIn a 96-Well plate, the reaction mixture contains 50 µL of samples pre-incubated with 125 µL of 3 mM 5,5ʹ-Dithiobis-(2-nitrobenzoic acid), and 25 µL AChE (2.0 U/mL), in 50 mM tris-HCl buffer (pH 8.0), with 0.1% bovine serum albumin (BSA) for 15 minutes at 25 °C. Subsequently, 25 µL (15 mM) ACTI was added to the incubation mixture and further incubated for 10 min at 25 °C. […] Absorbance was recorded at 450 nm. The percent AChE inhibitory activity is given by: [A0 − (B − C)]/A0 × 100 (3) where A0 = full enzymatic reaction; B = Activity in the presence of sample; and C = Activity without sample."}, "Rat liver microsomes": {"tested_on": "Rat liver microsomes", "settings": "Fe2+-induced, TBARs, samples screened at 50.00 μg/mL, ± STDEV"}},
  "data": [
    {"smiles": "CC1(C)CC[C@]2(C)CC=C3[C@](C)(CCC4[C@@]5(C)CC[C@H](O)[C@](C)(CO)C5CC[C@@]34C)C2C1", "note": "(stereo partly drawn) [Compound 11, 3β-24-dihydroxyterexer-14-ene]", "values": [
      {"measurement": "Peroxyl (ORAC peroxyl radical absorbance capacity)", "setting": "[1]", "result": "1193.10 ± 1.68", "unit": "µM TE/g"},
      {"measurement": "Hydroxyl (ORACOH)", "setting": "[2]", "result": "0.89 ± 7.34 × 10^6 µMTE/g"},
      {"measurement": "Prooxidant (copper-initiated prooxidant activity)", "setting": "[3]", "result": "31.38 ± 7.00", "unit": "prooxidant units"},
      {"measurement": "TEAC", "setting": "[4]", "result": "1323.61 ± 1.76", "unit": "μM TE/g DW"},
      {"measurement": "FRAP", "setting": "[5]", "result": "197.99 ± 3.90", "unit": "µMAAE/g"},
      {"measurement": "Inhibitory Activities IC50, Tyrosinase", "setting": "mushroom tyrosinase", "result": ">100.00", "unit": "µg/mL"},
      {"measurement": "IC50", "setting": "[6]", "result": "> 226", "unit": "µM"},
      {"measurement": "IC50", "setting": "[7]", "result": 707, "unit": "µM"},
      {"measurement": "Anti-Lipid peroxidation IC50", "setting": "Rat liver microsomes", "result": ">50.00", "unit": "µg/mL"}
    ]}
  ]
}
